This passage reports IC50 results from patent US9718774B2, “Indole carboxamide derivatives as P2X7 receptor antagonist” (ACTELION PHARMACEUTICALS LTD, priority 2012, dated 2017).

Each structure is given as a SMILES string.

In general, IC50 refers to the midpoint of a concentration-inhibition curve.

The assay has as its target T1, human recombinant P2X7 receptor (Homo sapiens, UniProt Q99572).
T1 construct: expressed in transfected cells
T1 sequence (Q99572 1-595): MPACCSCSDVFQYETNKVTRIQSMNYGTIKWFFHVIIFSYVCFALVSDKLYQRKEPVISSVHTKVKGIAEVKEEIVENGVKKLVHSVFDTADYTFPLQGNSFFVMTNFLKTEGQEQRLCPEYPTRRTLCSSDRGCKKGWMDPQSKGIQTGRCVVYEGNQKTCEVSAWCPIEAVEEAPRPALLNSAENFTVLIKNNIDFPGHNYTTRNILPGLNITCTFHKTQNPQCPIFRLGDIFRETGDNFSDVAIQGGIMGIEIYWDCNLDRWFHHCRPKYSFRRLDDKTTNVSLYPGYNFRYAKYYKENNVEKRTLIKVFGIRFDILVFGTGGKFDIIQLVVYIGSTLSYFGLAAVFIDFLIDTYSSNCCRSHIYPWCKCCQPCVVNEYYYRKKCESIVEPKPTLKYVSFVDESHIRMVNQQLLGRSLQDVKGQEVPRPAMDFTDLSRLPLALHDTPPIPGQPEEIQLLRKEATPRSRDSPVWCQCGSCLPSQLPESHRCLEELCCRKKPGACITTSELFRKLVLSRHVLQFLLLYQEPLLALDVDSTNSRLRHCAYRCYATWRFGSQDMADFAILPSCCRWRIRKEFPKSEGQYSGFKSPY
The experiment in a line: YO-PRO assay: P2X7 receptor antagonistic activity in HEK cells stably expressing P2X7. Format: cell-based. The settings on record: antagonistic activity with respect to the P2X7 receptor, read-out: IC50. The gist of the method: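 HEK cells stably transfected with human P2X7 (cloned from blood cDNA) were loaded with 0.5 μM YO-PRO-1. They were exposed to antagonist (10 concentrations, top 10 μM, 1/3 steps, duplicate) together with 250 μM ATP for 90 min, and dye uptake was read by FLIPR at ex 485/em 530. IC50 from maximum fluorescence versus concentration.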
As to `Cc1ncc(C(CNC(=O)c2cc(OCCO)c3[nH]ccc3c2Cl)N2CCOCC2)cn1` (racemic) [Example 113, rac-4-Chloro-7-(2-hydroxy-ethoxy)-1H-indole-5-carboxylic acid [2-(2-methyl-pyrimidin-5-yl)-2-morpholin-4-yl-ethyl]-amide], the half-maximal inhibitory concentration (IC50) was found to be 21 nM.
In the case of `O=C(NCC(c1cccnn1)N1CCOCC1)c1ccc2[nH]ccc2c1Cl` (racemic) [Example 90, rac-4-Chloro-1H-indole-5-carboxylic acid (2-morpholin-4-yl-2-pyridazin-3-yl-ethyl)-amide], the half-maximal inhibitory concentration (IC50) worked out at 1620 nM.
Next, `O=C(NCC(c1ccns1)N1CCCCC1)c1ccc2[nH]ccc2c1Cl` (racemic) [Example 61, rac-4-Chloro-1H-indole-5-carboxylic acid (2-isothiazol-5-yl-2-piperidin-1-yl-ethyl)-amide]: 15 nM.
For `O=C(NCC(c1cccnc1)N1CCCCC1)c1ccc2[nH]ccc2c1Cl` (racemic) [Example 46, rac-4-Chloro-1H-indole-5-carboxylic acid (2-piperidin-1-yl-2-pyridin-3-yl-ethyl)-amide], the IC50 came to 39 nM.
As for `Cc1ccc(C(CNC(=O)c2ccc3[nH]ccc3c2Cl)N2CCOCC2)cc1` (racemic) [Example 47, rac-4-Chloro-1H-indole-5-carboxylic acid (2-morpholin-4-yl-2-p-tolyl-ethyl)-amide], the IC50 is 54 nM.
As to `O=C(NCC(c1ccc(F)cc1)N1CCOCC1)c1ccc2[nH]ccc2c1Cl` (racemic) [Example 17, rac-4-Chloro-1H-indole-5-carboxylic acid [2-(4-fluoro-phenyl)-2-morpholin-4-yl-ethyl]-amide], the IC50 stood at 9.2 nM.
In the case of `Cc1ncc(C(CNC(=O)c2ccc3[nH]ccc3c2Cl)N2CCCC(F)(F)C2)cn1` (racemic) [Example 79, rac-4-Chloro-1H-indole-5-carboxylic acid [2-(3,3-difluoro-piperidin-1-yl)-2-(2-methyl-pyrimidin-5-yl)-ethyl]-amide], the IC50 is 9.3 nM.
For `O=C(NCC(c1ccc(C(F)(F)F)cc1)N1CCCCC1)c1ccc2[nH]ccc2c1Cl` (racemic) [Example 44, rac-4-Chloro-1H-indole-5-carboxylic acid [2-piperidin-1-yl-2-(4-trifluoromethyl-phenyl)-ethyl]-amide], the IC50 stood at 889 nM.
Regarding `CCOC(CNC(=O)c1ccc2[nH]ccc2c1Cl)c1cnc(C)nc1` (racemic) [Example 67, rac-4-Chloro-1H-indole-5-carboxylic acid [2-ethoxy-2-(2-methyl-pyrimidin-5-yl)-ethyl]-amide], the IC50 was determined as 636 nM.
Regarding `O=C(NCC(c1cncnc1)N1CCCCC1)c1ccc2[nH]ccc2c1Cl` (racemic) [Example 27, rac-4-Chloro-1H-indole-5-carboxylic acid (2-piperidin-1-yl-2-pyrimidin-5-yl-ethyl)-amide], the IC50 is 8.7 nM.
For `Cc1ncc([C@H](CNC(=O)c2ccc3[nH]ccc3c2Cl)N2CCCCC2C)cn1` (mixture of isomers) [Example 77, 4-Chloro-1H-indole-5-carboxylic acid [(R)-2-(2-methyl-piperidin-1-yl)-2-(2-methyl-pyrimidin-5-yl)-ethyl]-amide], the IC50 amounted to 87 nM.
`CCOc1cc(C(=O)NCC(c2cnc(C)nc2)N2CCOCC2)c(Cl)c2cc[nH]c12` (racemic) [Example 110, rac-4-Chloro-7-ethoxy-1H-indole-5-carboxylic acid [2-(2-methyl-pyrimidin-5-yl)-2-morpholin-4-yl-ethyl]-amide]: the IC50 was 13 nM.
Consider `O=C(NCC(c1ccc(F)cn1)N1CCCCC1)c1ccc2[nH]ccc2c1Cl` (racemic) [Example 32, rac-4-Chloro-1H-indole-5-carboxylic acid [2-(5-fluoro-pyridin-2-yl)-2-piperidin-1-yl-ethyl]-amide], for which the IC50 stood at 232 nM.
For the molecule `Cc1ncc(C(CNC(=O)c2ccc3[nH]ccc3c2Cl)N2CCC(C(=O)OC(C)(C)C)CC2)cn1` (racemic) [Example 75, rac-1-[2-[(4-Chloro-1H-indole-5-carbonyl)-amino]-1-(2-methyl-pyrimidin-5-yl)-ethyl]-piperidine-4-carboxylic acid tert-butyl ester], the half-inhibitory concentration (IC50) worked out at 258 nM.
Next, `COc1cc(C(=O)NCC(c2cnc(C)nc2)N2CCOCC2)c(Cl)c2cc[nH]c12` (single isomer, unassigned) [Example 114, 4-Chloro-7-methoxy-1H-indole-5-carboxylic acid [2-(2-methyl-pyrimidin-5-yl)-2-morpholin-4-yl-ethyl]-amide]: 14 nM; `O=C(NCC(c1ccc(F)c(F)c1)N1CCOCC1)c1ccc2[nH]ccc2c1Cl` (racemic) [Example 50, rac-4-Chloro-1H-indole-5-carboxylic acid [2-(3,4-difluoro-phenyl)-2-morpholin-4-yl-ethyl]-amide]: 13 nM.
Turning to `Cc1ncc(C(CNC(=O)c2cc(C)c3[nH]ccc3c2C(F)(F)F)N2CCOCC2)cn1` (racemic) [Example 103, rac-7-Methyl-4-trifluoromethyl-1H-indole-5-carboxylic acid [2-(2-methyl-pyrimidin-5-yl)-2-morpholin-4-yl-ethyl]-amide], the concentration for half-maximal inhibition (IC50) worked out at 26 nM.
With `O=C(NCC(c1cccc(F)c1)N1CCCCC1)c1ccc2[nH]ccc2c1Cl` (racemic) [Example 43, rac-4-Chloro-1H-indole-5-carboxylic acid [2-(3-fluoro-phenyl)-2-piperidin-1-yl-ethyl]-amide] the figure was 163 nM.
With `COc1cc(C(=O)NCC(c2cnc(C)nc2)N2CCOCC2)c(F)c2cc[nH]c12` (racemic) [Example 118, rac-4-Fluoro-7-methoxy-1H-indole-5-carboxylic acid [2-(2-methyl-pyrimidin-5-yl)-2-morpholin-4-yl-ethyl]-amide] the figure was 20 nM; with `Cn1cc(C(CNC(=O)c2ccc3[nH]ccc3c2Cl)N2CCOCC2)cn1` (racemic) [Example 28, rac-4-Chloro-1H-indole-5-carboxylic acid [2-(1-methyl-1H-pyrazol-4-yl)-2-morpholin-4-yl-ethyl]-amide], 66 nM.
With `O=C(NCC(c1ccc(Cl)nc1)C1CCCCC1)c1ccc2[nH]ccc2c1Cl` (racemic) [Example 65, rac-4-Chloro-1H-indole-5-carboxylic acid [2-(6-chloro-pyridin-3-yl)-2-cyclohexyl-ethyl]-amide], the IC50 was 76 nM.
`Cc1noc(C)c1C(CNC(=O)c1ccc2[nH]ccc2c1Cl)N1CCCCC1` (racemic) [Example 54, rac-4-Chloro-1H-indole-5-carboxylic acid [2-(3,5-dimethyl-isoxazol-4-yl)-2-piperidin-1-yl-ethyl]-amide]: the IC50 worked out at 1850 nM.
